{"source": "patent US8192962B2", "about": "“Processes for detecting toxic substances” (Daikin Industries, Ltd., priority 2001, dated 2012)", "system": "Unknown protein yeast genes", "experiment": "DNA chip mRNA expression in yeast, unknown protein yeast genes (Table 1)", "format": "cell-based, Saccharomyces cerevisiae S288C", "how_it_was_run": "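Values are treated/untreated fluorescence ratios from a whole-genome yeast DNA chip hybridized over 12 hours at 65° C with Cy3- or Cy5-labelled cDNA from poly(A) mRNA. Log-phase S288C yeast in YPD at 25° C had received a single toxic chemical for two hours, dosed to slow growth without killing.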", "data": [{"substance": "manganese ethylenebis(dithiocarbamate) [(8)]", "values": [{"measurement": "The level of expressed mRNA in the presence of chemical substance/The level of expressed mRNA in the absence of chemical substance", "setting": "yeast gene YKL195W, incubated two hours with chemical substance", "result": 1.2}, {"measurement": "The level of expressed mRNA in the presence of chemical substance/The level of expressed mRNA in the absence of chemical substance", "setting": "yeast gene YKR091W, incubated two hours with chemical substance", "result": 1.3}, {"measurement": "The level of expressed mRNA in the presence of chemical substance/The level of expressed mRNA in the absence of chemical substance", "setting": "yeast gene YLR054C, incubated two hours with chemical substance", "result": 1.1}, {"measurement": "The level of expressed mRNA in the presence of chemical substance/The level of expressed mRNA in the absence of chemical substance", "setting": "yeast gene YLR149C, incubated two hours with chemical substance", "result": 1.1}, {"measurement": "The level of expressed mRNA in the presence of chemical substance/The level of expressed mRNA in the absence of chemical substance", "setting": "yeast gene YLR152C, incubated two hours with chemical substance", "result": 1.2}, {"measurement": "The level of expressed mRNA in the presence of chemical substance/The level of expressed mRNA in the absence of chemical substance", "setting": "yeast gene YLR194C, incubated two hours with chemical substance", "result": 1.0}, {"measurement": "The level of expressed mRNA in the presence of chemical substance/The level of expressed mRNA in the absence of chemical substance", "setting": "yeast gene YLR324W, incubated two hours with chemical substance", "result": 1.0}, {"measurement": "The level of expressed mRNA in the presence of chemical substance/The level of expressed mRNA in the absence of chemical substance", "setting": "yeast gene YLR350W, incubated two hours with chemical substance", "result": 1.0}, {"measurement": "The level of expressed mRNA in the presence of chemical substance/The level of expressed mRNA in the absence of chemical substance", "setting": "yeast gene YLR387C, incubated two hours with chemical substance", "result": 1.4}, {"measurement": "The level of expressed mRNA in the presence of chemical substance/The level of expressed mRNA in the absence of chemical substance", "setting": "yeast gene YLR460C", "result": 8.1}, {"measurement": "The level of expressed mRNA in the presence of chemical substance/The level of expressed mRNA in the absence of chemical substance", "setting": "yeast gene YML117W, incubated two hours with chemical substance", "result": 0.7}, {"measurement": "The level of expressed mRNA in the presence of chemical substance/The level of expressed mRNA in the absence of chemical substance", "setting": "yeast gene YMR009W, incubated two hours with chemical substance", "result": 1.4}, {"measurement": "The level of expressed mRNA in the presence of chemical substance/The level of expressed mRNA in the absence of chemical substance", "setting": "yeast gene YMR067C, incubated two hours with chemical substance", "result": 1.1}, {"measurement": "The level of expressed mRNA in the presence of chemical substance/The level of expressed mRNA in the absence of chemical substance", "setting": "yeast gene YMR090W", "result": 3.9}, {"measurement": "The level of expressed mRNA in the presence of chemical substance/The level of expressed mRNA in the absence of chemical substance", "setting": "yeast gene YMR095C, incubated two hours with chemical substance", "result": 1.2}, {"measurement": "The level of expressed mRNA in the presence of chemical substance/The level of expressed mRNA in the absence of chemical substance", "setting": "yeast gene YMR097C, incubated two hours with chemical substance", "result": 1.5}, {"measurement": "The level of expressed mRNA in the presence of chemical substance/The level of expressed mRNA in the absence of chemical substance", "setting": "yeast gene YMR102C, incubated two hours with chemical substance", "result": 1.0}, {"measurement": "The level of expressed mRNA in the presence of chemical substance/The level of expressed mRNA in the absence of chemical substance", "setting": "yeast gene YMR107W, incubated two hours with chemical substance", "result": 1.3}, {"measurement": "The level of expressed mRNA in the presence of chemical substance/The level of expressed mRNA in the absence of chemical substance", "setting": "yeast gene YMR180C, incubated two hours with chemical substance", "result": 1.8}, {"measurement": "The level of expressed mRNA in the presence of chemical substance/The level of expressed mRNA in the absence of chemical substance", "setting": "yeast gene YMR184W, incubated two hours with chemical substance", "result": 1.9}, {"measurement": "The level of expressed mRNA in the presence of chemical substance/The level of expressed mRNA in the absence of chemical substance", "setting": "yeast gene YMR191W, incubated two hours with chemical substance", "result": 1.1}, {"measurement": "The level of expressed mRNA in the presence of chemical substance/The level of expressed mRNA in the absence of chemical substance", "setting": "yeast gene YMR295C, incubated two hours with chemical substance", "result": 1.0}, {"measurement": "The level of expressed mRNA in the presence of chemical substance/The level of expressed mRNA in the absence of chemical substance", "setting": "yeast gene YMR316W, incubated two hours with chemical substance", "result": 1.6}, {"measurement": "The level of expressed mRNA in the presence of chemical substance/The level of expressed mRNA in the absence of chemical substance", "setting": "yeast gene YNL044W, incubated two hours with chemical substance", "result": 1.8}, {"measurement": "The level of expressed mRNA in the presence of chemical substance/The level of expressed mRNA in the absence of chemical substance", "setting": "yeast gene YNL074C, incubated two hours with chemical substance", "result": 0.6}, {"measurement": "The level of expressed mRNA in the presence of chemical substance/The level of expressed mRNA in the absence of chemical substance", "setting": "yeast gene YNL092W, incubated two hours with chemical substance", "result": 0.9}, {"measurement": "The level of expressed mRNA in the presence of chemical substance/The level of expressed mRNA in the absence of chemical substance", "setting": "yeast gene YNL115C, incubated two hours with chemical substance", "result": 0.8}, {"measurement": "The level of expressed mRNA in the presence of chemical substance/The level of expressed mRNA in the absence of chemical substance", "setting": "yeast gene YNL156C, incubated two hours with chemical substance", "result": 1.2}, {"measurement": "The level of expressed mRNA in the presence of chemical substance/The level of expressed mRNA in the absence of chemical substance", "setting": "yeast gene YNL234W, incubated two hours with chemical substance", "result": 1.3}, {"measurement": "The level of expressed mRNA in the presence of chemical substance/The level of expressed mRNA in the absence of chemical substance", "setting": "yeast gene YNL281W, incubated two hours with chemical substance", "result": 1.2}, {"measurement": "The level of expressed mRNA in the presence of chemical substance/The level of expressed mRNA in the absence of chemical substance", "setting": "yeast gene YNL305C, incubated two hours with chemical substance", "result": 0.7}, {"measurement": "The level of expressed mRNA in the presence of chemical substance/The level of expressed mRNA in the absence of chemical substance", "setting": "yeast gene YNR068C, incubated two hours with chemical substance", "result": 1.1}, {"measurement": "The level of expressed mRNA in the presence of chemical substance/The level of expressed mRNA in the absence of chemical substance", "setting": "yeast gene YOL032W, incubated two hours with chemical substance", "result": 1.5}, {"measurement": "The level of expressed mRNA in the presence of chemical substance/The level of expressed mRNA in the absence of chemical substance", "setting": "yeast gene YOL036W, incubated two hours with chemical substance", "result": 0.8}, {"measurement": "The level of expressed mRNA in the presence of chemical substance/The level of expressed mRNA in the absence of chemical substance", "setting": "yeast gene YOL047C, incubated two hours with chemical substance", "result": 1.1}, {"measurement": "The level of expressed mRNA in the presence of chemical substance/The level of expressed mRNA in the absence of chemical substance", "setting": "yeast gene YOL071W, incubated two hours with chemical substance", "result": 1.6}, {"measurement": "The level of expressed mRNA in the presence of chemical substance/The level of expressed mRNA in the absence of chemical substance", "setting": "yeast gene YOL082W, incubated two hours with chemical substance", "result": 1.1}, {"measurement": "The level of expressed mRNA in the presence of chemical substance/The level of expressed mRNA in the absence of chemical substance", "setting": "yeast gene YOL083W, incubated two hours with chemical substance", "result": 1.3}, {"measurement": "The level of expressed mRNA in the presence of chemical substance/The level of expressed mRNA in the absence of chemical substance", "setting": "yeast gene YOL117W, incubated two hours with chemical substance", "result": 1.1}, {"measurement": "The level of expressed mRNA in the presence of chemical substance/The level of expressed mRNA in the absence of chemical substance", "setting": "yeast gene YOL131W, incubated two hours with chemical substance", "result": 1.1}, {"measurement": "The level of expressed mRNA in the presence of chemical substance/The level of expressed mRNA in the absence of chemical substance", "setting": "yeast gene YOL150C", "result": 3.7}, {"measurement": "The level of expressed mRNA in the presence of chemical substance/The level of expressed mRNA in the absence of chemical substance", "setting": "yeast gene YOL162W, incubated two hours with chemical substance", "result": 1.6}, {"measurement": "The level of expressed mRNA in the presence of chemical substance/The level of expressed mRNA in the absence of chemical substance", "setting": "yeast gene YOR019W, incubated two hours with chemical substance", "result": 1.1}, {"measurement": "The level of expressed mRNA in the presence of chemical substance/The level of expressed mRNA in the absence of chemical substance", "setting": "yeast gene YOR197W, incubated two hours with chemical substance", "result": 0.9}, {"measurement": "The level of expressed mRNA in the presence of chemical substance/The level of expressed mRNA in the absence of chemical substance", "setting": "yeast gene YPL087W, incubated two hours with chemical substance", "result": 1.0}, {"measurement": "The level of expressed mRNA in the presence of chemical substance/The level of expressed mRNA in the absence of chemical substance", "setting": "yeast gene YPL196W, incubated two hours with chemical substance", "result": 1.2}, {"measurement": "The level of expressed mRNA in the presence of chemical substance/The level of expressed mRNA in the absence of chemical substance", "setting": "yeast gene YPL206C, incubated two hours with chemical substance", "result": 1.0}, {"measurement": "The level of expressed mRNA in the presence of chemical substance/The level of expressed mRNA in the absence of chemical substance", "setting": "yeast gene YPL222W, incubated two hours with chemical substance", "result": 0.7}, {"measurement": "The level of expressed mRNA in the presence of chemical substance/The level of expressed mRNA in the absence of chemical substance", "setting": "yeast gene YPR023C, incubated two hours with chemical substance", "result": 0.9}, {"measurement": "The level of expressed mRNA in the presence of chemical substance/The level of expressed mRNA in the absence of chemical substance", "setting": "yeast gene YPR151C, incubated two hours with chemical substance", "result": 1.4}]}]}
